Measured values taken from paper PMC11189555, “Aryl amino acetamides prevent Plasmodium falciparum ring development via targeting the lipid-transfer protein PfSTART1” (Nature Communications, 2024).
pEC50: −log10 of the molar value. Values joined by “and” are separate entries in the source; they are usually repeats but may differ in a detail not shown here. Equal entries are not always repeated. Where two headings read alike, the source gives them in different places.

Test system: CR-WT parasites
Assay: Growth inhibition assay (72 h, LDH activity)
Assay type: cell-based, Plasmodium falciparum
Conditions: for pEC50: n = 3
Experimental: Parasite growth assays with inhibitory compounds were performed as per[11] and are fully described in the Supplementary Information.
Molecular biology and transfection of P. falciparum: CRISPR method.
The full 5’ homology region of pfstart1 (either WT, N309K or N330K) was amplified from pPfSTART1-HA-2A-Neo-glmS with the same 5’ BglII primer and a new 3’ primer that replaced with PstI with SpeI and introduced a stop codon. The PCR product was then digested with BglII and SpeI and inserted into similarly digested p1.2 parasite vector2. The p1.2 vector had previously been inserted with a homology region amplified from the 3’ end of the pfstart1 gene (3’HB) to form a second homology block for double recombination. The primers used to amplify 3’HB are listed primers listed in […]
60 μg of p1.2-PfSTART1(WT/N309K/N330K) plasmid was linearised with KasI, precipitated in 3 M sodium acetate and ethanol (70% final concentration) overnight at -20°C. The DNA pellet was washed in cold 70% ethanol and resuspended in cytomix 3.
50 μ M of crRNA ( Table S 2) and 50 μM of tracRNA (Integrated DNA Technologies) were allowed to form a duplex (5 min at 95°C), and Cas9 enzyme (Integrated DNA Technologies) was added, and incubated for 20 min at room temperature 4. This crRNA -tracRNA -Cas9 mix was added to each DNA preparation and transfected to 3D7 ring parasites using the Bio -Rad Gene Pulser at 310 V and 950 μF.
Parasites containing the transfected DNA were selected using 2.5 nM WR99210 (Jacobus). Parasites lines were cloned using limiting dilution. Correct integration was tested by PCR (using primer START_5’UTR.F and START_Int.R1 , Table S 2), and sequencing was done using the primers START_3F and START_Int.R2 (Table S 2).
Growth inhibition assays. Synchronised ring-stage parasites (0.3-0.6% parasitemia, 2% haematocrit) were grown for 72 h in a serial-dilution of the compound under […]
and compound 4. Note that M-833 was first purchased from MolPort (MolPort -002-267-916) then made in-house at WEHI: the differences observed in EC50s across experiments are attributed to the different batches of M -833. For some experiments, 0, 0.25 or 2.5 mM of glucosamine (GlcN) was also added. Experiments were set up in technical duplicates or triplicates. Following a freeze -thaw cycle, lactate dehydrogenase (LDH) activity was assessed as an indicator of parasite growt h 5. 30 μL of parasite culture was incubated for 30 min in the dark with 75 μL Malstat mixture (0.1 M Tris pH 9.0, 20 g/L lactic acid, pH 7.5, 0.2% Triton-X100, 0.5 g/L acetylpyridine adenine dinucleotide (APAD, Sigma), 200 μg/mL nitroblue tetrazolium (NBT; Sigma), 1 μg/mL phenozine ethosulfate (PES; Sigma)). Absorbance was then measured at 650 nm, transformed using the formula below, plotted against the logarithm of the concentrations, and a non-linear regression (log(inhibitor) vs. response, variable slope) was calculated using GraphPad Prism to assess the half-inhibitory […]
Growth inhibition % = (1 − average(sample)− average(uRBC)) ∗ 100 […]
The DMSO samples were also used to assess growth of parasite in the presence of 0.25 and 2.5 mM GlcN (normalised by DMSO in 0 mM GlcN). […]

## Cc1cc(Cl)c(S(=O)(=O)N2CCCC2)cc1OCC(=O)NC1CCCCC1 [M-833]
CR-WT, 0 mM GlcN, conc 41.1523 nM
  Growth inhibition assay, NORMALISED: 25.7439 and 21.0208
CR-WT, 0 mM GlcN, conc 123.457 nM
  Growth inhibition assay, NORMALISED: 61.3173 and 56.525
CR-WT, 0 mM GlcN, conc 370.37 nM
  Growth inhibition assay, NORMALISED: 82.8843
CR-WT, 0 mM GlcN, conc 1111.11 nM
  Growth inhibition assay, NORMALISED: 89.7059
CR-WT, 0 mM GlcN, conc 3333.33 nM
  Growth inhibition assay, NORMALISED: 91.3866
CR-WT, 0 mM GlcN, conc 10000 nM
  Growth inhibition assay, NORMALISED: 91.9797
CR-WT, 0.25 mM GlcN, M833 dilution point 1 of 10 (starting concentration 10 uM)
  NORMALISED (growth inhibition, LDH absorbance vs DMSO and uRBC): 91.6378 and 97.2065 and 92.208
CR-WT, 0.25 mM GlcN, M833 dilution point 2 of 10 from 10 uM start
  NORMALISED (growth inhibition, LDH absorbance vs DMSO and uRBC): 88.8272 and 91.5474 and 95.4251
CR-WT, 0.25 mM GlcN, M833 dilution point 3 of 10 from 10 uM start
  NORMALISED (growth inhibition, LDH absorbance vs DMSO and uRBC): 89.2783 and 89.1988 and 95.5364
CR-WT, 0.25 mM GlcN, M833 dilution point 4 of 10 from 10 uM start
  NORMALISED (growth inhibition, LDH absorbance vs DMSO and uRBC): 88.272 and 87.9755 and 93.8563
CR-WT, 0.25 mM GlcN, M833 dilution point 5 of 10 from 10 uM start
  NORMALISED (growth inhibition, LDH absorbance vs DMSO and uRBC): 75.3643 and 67.6575 and 81.1437
CR-WT, 0.25 mM GlcN, M833 dilution point 6 of 10 from 10 uM start
  NORMALISED (growth inhibition, LDH absorbance vs DMSO and uRBC): 45.0382 and 30.6544 and 52.9049
CR-WT, 2.5 mM GlcN, M833 dilution point 1 of 10 (starting concentration 10 uM)
  NORMALISED (growth inhibition, LDH absorbance vs DMSO and uRBC): 89.8305 and 92.5684 and 90.1213
CR-WT, 2.5 mM GlcN, M833 dilution point 2 of 10 from 10 uM start
  NORMALISED (growth inhibition, LDH absorbance vs DMSO and uRBC): 86.1896 and 88.6745 and 91.3765
CR-WT, 2.5 mM GlcN, M833 dilution point 3 of 10 from 10 uM start
  NORMALISED (growth inhibition, LDH absorbance vs DMSO and uRBC): 89.5794 and 86.621 and 91.7037
CR-WT, 2.5 mM GlcN, M833 dilution point 4 of 10 from 10 uM start
  NORMALISED (growth inhibition, LDH absorbance vs DMSO and uRBC): 86.2524 and 82.3118 and 91.2012
CR-WT, 2.5 mM GlcN, M833 dilution point 5 of 10 from 10 uM start
  NORMALISED (growth inhibition, LDH absorbance vs DMSO and uRBC): 84.1808 and 81.8139 and 88.9226
CR-WT, 2.5 mM GlcN, M833 dilution point 6 of 10 from 10 uM start
  NORMALISED (growth inhibition, LDH absorbance vs DMSO and uRBC): 79.5355 and 74.3155 and 81.4326
CR-WT, 2.5 mM GlcN, M833 dilution point 7 of 10 from 10 uM start
  NORMALISED (growth inhibition, LDH absorbance vs DMSO and uRBC): 64.0929 and 56.4406 and 58.0509
CR-WT, 2.5 mM GlcN, M833 dilution point 8 of 10 from 10 uM start
  NORMALISED (growth inhibition, LDH absorbance vs DMSO and uRBC): 44.6955 and 44.5084 and 37.5789
CR-WT, 2.5 mM GlcN, M833 dilution point 9 of 10 from 10 uM start
  NORMALISED (growth inhibition, LDH absorbance vs DMSO and uRBC): 25.0175 and 29.9435 and 28.2047
CR-WT, 2.5 mM GlcN, M833 dilution point 10 of 10 from 10 uM start
  NORMALISED (growth inhibition, LDH absorbance vs DMSO and uRBC): 14.8750 and 11.4878 and 17.8749
Plasmodium falciparum, 72 h, Fig 2D, CR-WT, 72 h, read-out: EC50 (95% confidence interval)
  pEC50: 7.29
Plasmodium falciparum, CR-WT, 0 mM GlcN, conc 370.37 nM, read-out: Growth inhibition assay, NORMALISED
  inhibition at 0.37037 µM: 88.3%
Plasmodium falciparum, CR-WT, 0 mM GlcN, conc 1111.11 nM, read-out: Growth inhibition assay, NORMALISED
  inhibition at 1.11111 µM: 91.9%
Plasmodium falciparum, CR-WT, 0 mM GlcN, conc 3333.33 nM, read-out: Growth inhibition assay, NORMALISED
  inhibition at 3.33333 µM: 91.6%
Plasmodium falciparum, CR-WT, 0 mM GlcN, conc 10000 nM, read-out: Growth inhibition assay, NORMALISED
  inhibition at 10 µM: 93.5%
Plasmodium falciparum, read-out: EC50 M-833 (95% confidence interval), Fig 3F, CR-WT, 0.25 mM GlcN
  pEC50: 7.40
Plasmodium falciparum, read-out: EC50 M-833 (95% confidence interval), Fig 3F, CR-WT, 2.5 mM GlcN
  pEC50: 8.18
{}
  fold reduction of EC50 on addition of 2.5 mM GlcN: 7.8 fold
